Assays:
[1] = test system: human peripheral blood monocyte cells, second type (HLA-DRB1*13:01, 14:06); experiment: ELISPOT assay for interleukin-4, cell 2; type: cell-based; conditions: 4×10^5 cells per well, peptide 10 μg/ml, 48 hours, after 13 days culture with peptide 1 μg/ml and IL-2
Experimental: (§1) There was performed an assay for specifying a peptide that could actually be an antigen from the peptide candidate list obtained up to Example 8. In this example, it was confirmed whether the sequence of the peptide obtained as described above could function as a T cell epitope. Of the 12 highly versatile epitope candidates obtained above, 8 epitope candidates were subjected to an assay using peptides.
(§2) Human peripheral blood monocyte cells carrying HLA types and showing high binding affinity with 8 peptide sequences in Example 8 were used. Specifically, human peripheral blood monocyte cells carrying the following 2 types of HLA types were purchased from Lonza K.K. (Tokyo, Japan) and used. The HLA types of the first type of human peripheral blood monocyte cells used were HLA-DPA1*01:03, 02:02, HLA-DPB1*04:01, 05:01, HLA-DQA1*01:02, 02:01, HLA-DQB1*03:03, 05:02, and HLA-DRB1*07:01, 15:02. The HLA types of the second type of human peripheral blood monocyte cells were HLA-DPA1*01:03, HLA-DPB1*04:01, 04:02, HLA-DOA1*01:03, 05:05, HLA-DOB1*03:01, 06:03, and HLA-DRB1*13:01,14:06.
(§3) Cells were cultured in the following manner. […]
(§4) ELISPOT assays for interferon-γ and interleukin-4 were conducted. […] The number of spots of the color-developed plate was measured by a contract analysis service of M&S TechnoSystems, Inc. (Osaka, Japan).

[2] = test system: human peripheral blood monocyte cells, first type (HLA-DRB1*07:01, 15:02); experiment: ELISPOT assay for interleukin-4, cell 1; type: cell-based; conditions: 4×10^5 cells per well, peptide 10 μg/ml, 48 hours, after 13 days culture with peptide 1 μg/ml and IL-2
Experimental: as §1, §2, §3, §4

[3] = test system: T cells; conditions: peptide sequence including the TREM sequence (from TCRβ repertoire, Table 12 no) activates T cells to induce interferon-γ; cited from earlier work

Substance	ELISPOT IL-4 cell 2 (number of spots) [1]	ELISPOT IL-4 cell 1 (number of spots) [2]	IFN-g release [3]
7 (QDEKGVTQNGRLITA; listed as Homo sapiens) [compound 7]	12	6	–
15 (LITMDWTWRFLFVVA; listed as Homo sapiens) [compound 15]	–	–	Positive
